This is an account of results in PubChem BioAssay (NCI).

Some test systems named below: RXF 393 renal; T-47D breast; SNB-19 CNS; UACC-62 melanoma; HL-60(TB) leukemia; PC-3 prostate; K-562 leukemia; NCI-H23 lung; HOP-62 NSCLC; A498 renal; BT-549 breast; A549 NSCLC; OVCAR-8 ovarian; OVCAR-5 ovarian; TK-10 renal; EKVX NSCLC; HOP-92 NSCLC; NCI/ADR-RES ovarian; SW-620 colon; NCI-H460 lung.
Holding throughout (assay): NCI-60 cell line screen, 48 h

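Cultured in 96-well plates, cells were exposed to test compound for 48 hours across five concentrations. TGI is the concentration that stops growth completely.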 A value given as a limit tells only on which side of the number the result lay.

Take `Cc1ccccc1N=CN(C)C`: the TGI is above 100 µM with RXF 393 renal; above 100 µM in the assay with T-47D breast; above 100 µM in the assay with SNB-19 CNS; above 100 µM with UACC-62 melanoma; 39 µM with HL-60(TB) leukemia; above 100 µM with PC-3 prostate. Also, the TGI with K-562 leukemia was 44.4 µM; in the assay with NCI-H23 lung, 61.8 µM; in the assay with HOP-62 NSCLC it was above 100 µM; in the assay with A498 renal it was above 100 µM; in the assay with BT-549 breast it was above 100 µM; in the assay on A549 NSCLC, above 100 µM. For the same molecule, the TGI with OVCAR-8 ovarian, in the assay with OVCAR-5 ovarian, in the assay with TK-10 renal, in the assay with EKVX NSCLC, with HOP-92 NSCLC and in the assay on NCI/ADR-RES ovarian was above 100 µM in each case.

Take `C=C1[C@H](OC(=O)C(C)C)[C@@H](OC(C)=O)[C@@H](OC(C)=O)C(C)(C)[C@@H]2O[C@H]2[C@@H](C)C(=O)[C@@]2(OC(C)=O)C[C@@](C)(OC(C)=O)[C@H](OC(C)=O)[C@@H]2[C@H]1OC(C)=O`: the TGI in the assay with SW-620 colon, with T-47D breast, in the assay on SNB-19 CNS, with UACC-62 melanoma, with HL-60(TB) leukemia and with PC-3 prostate was above 100 µM each time. Also, the TGI in the assay with K-562 leukemia, in the assay with NCI-H23 lung, in the assay on HOP-62 NSCLC, with A498 renal, in the assay with BT-549 breast and with A549 NSCLC was above 100 µM in each case. Moreover, the TGI in the assay with NCI-H460 lung, in the assay with OVCAR-8 ovarian, in the assay on OVCAR-5 ovarian, with TK-10 renal, with EKVX NSCLC and in the assay with HOP-92 NSCLC was above 100 µM in each case. The TGI in the assay on NCI/ADR-RES ovarian was above 100 µM.

With `N#CC1(C#N)NC(c2cccnc2)C(C#N)(C#N)NC1c1cccnc1` (stereo unspecified), the TGI in the assay on RXF 393 renal, with SW-620 colon, in the assay with T-47D breast, in the assay on UACC-62 melanoma, with HL-60(TB) leukemia and with PC-3 prostate was above 100 µM in each case. In addition, the TGI in the assay with K-562 leukemia, with NCI-H23 lung, in the assay on HOP-62 NSCLC, with A498 renal, in the assay with BT-549 breast and in the assay with A549 NSCLC was above 100 µM each time. In addition, the TGI in the assay with OVCAR-8 ovarian, in the assay with OVCAR-5 ovarian, in the assay with TK-10 renal, with EKVX NSCLC, in the assay on HOP-92 NSCLC and with NCI/ADR-RES ovarian was above 100 µM throughout.

On to `O=C(Nc1ccc(Cl)cc1)NS(=O)(=O)c1coc2ccccc2c1=O`, for which the TGI in the assay with RXF 393 renal, in the assay with SW-620 colon, in the assay on T-47D breast, with SNB-19 CNS, in the assay with UACC-62 melanoma and in the assay with HL-60(TB) leukemia was above 10 µM in each case. In addition, the TGI in the assay with PC-3 prostate, with NCI-H23 lung, in the assay with HOP-62 NSCLC, with A498 renal, with BT-549 breast and in the assay on A549 NSCLC was above 10 µM each time. Also, the TGI in the assay with NCI-H460 lung, in the assay on OVCAR-8 ovarian, in the assay on OVCAR-5 ovarian, in the assay with TK-10 renal, in the assay on EKVX NSCLC and with HOP-92 NSCLC was above 10 µM throughout. For the same molecule, the TGI in the assay with NCI/ADR-RES ovarian is above 10 µM.

As for `O=C(NCCc1ccccc1)[C@H]1CCCC[C@@H]1CCO`, the TGI with RXF 393 renal, in the assay on SW-620 colon, with T-47D breast, in the assay with UACC-62 melanoma, in the assay with HL-60(TB) leukemia and in the assay with PC-3 prostate was above 100 µM throughout. Besides, the TGI with K-562 leukemia, in the assay on NCI-H23 lung, in the assay with HOP-62 NSCLC, in the assay on A498 renal, with BT-549 breast and in the assay with A549 NSCLC was above 100 µM in each case. Besides, the TGI with NCI-H460 lung, with OVCAR-8 ovarian, with OVCAR-5 ovarian, in the assay on TK-10 renal, in the assay on EKVX NSCLC and with HOP-92 NSCLC was above 100 µM each time. Moreover, the TGI in the assay on NCI/ADR-RES ovarian was above 100 µM.

As for `Cc1cccc(NC(=S)Nc2ccc([N+](=O)[O-])cc2)n1`, the TGI with RXF 393 renal, in the assay on SW-620 colon, in the assay with T-47D breast, in the assay with SNB-19 CNS, with UACC-62 melanoma and with HL-60(TB) leukemia was above 100 µM throughout. The TGI in the assay with PC-3 prostate, in the assay on K-562 leukemia, with NCI-H23 lung, in the assay with HOP-62 NSCLC, in the assay with A498 renal and with BT-549 breast was above 100 µM throughout. In addition, the TGI in the assay with NCI-H460 lung, with OVCAR-8 ovarian, in the assay on TK-10 renal, in the assay on EKVX NSCLC, with HOP-92 NSCLC and with NCI/ADR-RES ovarian was above 100 µM in each case.

With `c1ccc(CSc2ccccc2CN2CCN(Cc3ccccc3SCc3ccccc3)CCN(Cc3ccccc3SCc3ccccc3)CC2)cc1`, the TGI in the assay on SW-620 colon was 69.2 µM; in the assay on T-47D breast, 4.81 µM; with SNB-19 CNS it was 5.19 µM; with UACC-62 melanoma it was 3.23 µM; in the assay on HL-60(TB) leukemia it was 4.06 µM; in the assay with PC-3 prostate, 2.52 µM. For the same molecule, the TGI with K-562 leukemia was 7.18 µM; in the assay with NCI-H23 lung, 2.67 µM; in the assay on HOP-62 NSCLC, 3.82 µM; in the assay with A498 renal, 5.81 µM; in the assay with BT-549 breast it was 4.1 µM; with A549 NSCLC, 10.1 µM. Also, the TGI amounted to 2.87 µM in the assay with NCI-H460 lung; 2.67 µM with OVCAR-8 ovarian; 6.04 µM in the assay on OVCAR-5 ovarian; 5.72 µM in the assay on TK-10 renal; 3.39 µM with EKVX NSCLC; 2 µM with HOP-92 NSCLC. The molecule also returned a TGI with NCI/ADR-RES ovarian of 6.85 µM.

`NC(=O)NC(=O)CCC(NS(=O)(=O)c1ccccc1)C(=O)NC(N)=O` (stereo unspecified): the TGI in the assay with SW-620 colon, with T-47D breast, with SNB-19 CNS, in the assay on UACC-62 melanoma, with HL-60(TB) leukemia and in the assay on PC-3 prostate was above 100 µM in each case. Moreover, the TGI in the assay with K-562 leukemia, in the assay on NCI-H23 lung, with HOP-62 NSCLC, in the assay on A498 renal, with BT-549 breast and in the assay on A549 NSCLC was above 100 µM in each case. Moreover, the TGI in the assay on NCI-H460 lung, in the assay on OVCAR-8 ovarian, with OVCAR-5 ovarian, in the assay with TK-10 renal, with EKVX NSCLC and in the assay on HOP-92 NSCLC was above 100 µM each time. Further, in the assay on NCI/ADR-RES ovarian, the TGI was above 100 µM.

`Cc1cc(=O)oc2cc(SC(=O)N(C)C)ccc12`: the TGI in the assay on RXF 393 renal, in the assay with SW-620 colon, in the assay with T-47D breast, in the assay on SNB-19 CNS, in the assay with UACC-62 melanoma and with HL-60(TB) leukemia was above 100 µM in each case. The TGI with PC-3 prostate, in the assay on NCI-H23 lung, with HOP-62 NSCLC, in the assay on A498 renal, in the assay on BT-549 breast and in the assay with A549 NSCLC was above 100 µM in each case. The TGI in the assay on NCI-H460 lung, with OVCAR-8 ovarian, in the assay with OVCAR-5 ovarian, with TK-10 renal, with EKVX NSCLC and in the assay with HOP-92 NSCLC was above 100 µM each time. The molecule further gave a TGI in the assay with NCI/ADR-RES ovarian above 100 µM.

On to `COc1ccc(C2=Nn3c(nc4sc(C)c(C)c4c3=O)SC2)cc1`, for which the TGI in the assay on RXF 393 renal, with SW-620 colon, in the assay on T-47D breast, in the assay on UACC-62 melanoma, with HL-60(TB) leukemia and with PC-3 prostate was above 100 µM throughout. In addition, the TGI with K-562 leukemia, in the assay on NCI-H23 lung, in the assay with HOP-62 NSCLC, with A498 renal, in the assay on BT-549 breast and in the assay on A549 NSCLC was above 100 µM in each case. Moreover, the TGI in the assay on NCI-H460 lung, in the assay on OVCAR-8 ovarian, in the assay with OVCAR-5 ovarian, with TK-10 renal, with EKVX NSCLC and with HOP-92 NSCLC was above 100 µM each time. Also, in the assay with NCI/ADR-RES ovarian, the TGI was above 100 µM.

On to `CC(C)/C(Cl)=N/OC(=O)Nc1cccc(C(F)(F)F)c1`, for which the TGI with RXF 393 renal stood at 18.9 µM; in the assay with SW-620 colon it was 1.8 µM; in the assay with T-47D breast it was 14.1 µM; in the assay with SNB-19 CNS, 34 µM; with UACC-62 melanoma, 27.6 µM; in the assay with HL-60(TB) leukemia, 2.22 µM. The TGI in the assay on PC-3 prostate amounted to 29.8 µM; with NCI-H23 lung, 31.3 µM; in the assay with HOP-62 NSCLC it was 32.1 µM; in the assay with A498 renal, 37.1 µM; with BT-549 breast it was 15.6 µM; in the assay on A549 NSCLC, 39.1 µM. The TGI in the assay with NCI-H460 lung is 34.3 µM; in the assay with OVCAR-8 ovarian, 31.8 µM; in the assay with OVCAR-5 ovarian, 34 µM; in the assay with TK-10 renal, 12.7 µM; with EKVX NSCLC, 7.1 µM; with HOP-92 NSCLC, 3.33 µM. The molecule further registered a TGI in the assay on NCI/ADR-RES ovarian of 16.7 µM.
